One may read the inhibition as the percentage by which the read-out fell short of the control.

This passage reports inhibition in vivo and inhibition results from US4778796A, “ω-(3-pyridyl)alkenamide derivatives and anti-allergenic pharmaceutical compositions containing same” (Dainippon Pharmaceutical Co., Ltd., priority 1985, dated 1988).

The test system of assay [1] is passive cutaneous anaphylaxis (PCA). Briefly: Inhibitory effect on passive cutaneous anaphylaxis (PCA) in rats. The class given is in vivo, rat (male Wistar). The following applies: Rattus norvegicus; 20 mg/kg, oral, 1 hour before antigen challenge; read-out: Inhibition (PCA in rats). As to the method:
(1) Inhibitory effect on passive cutaneous anaphylaxis (PCA) in rats:
This test was carried out by the method of Perper et al. [cf.
Male Wistar rats (130-180 g) were injected with 0.1 ml of a dilute solution of mouse antiserum to egg albumin in two sites of the shaved ventral skin. Forty-eight hours later each rat was challenged by an intravenous injection of 2 mg of the antigen together with 1 ml of a 0.5% Evan's blue saline solution. The rats were sacrificed 30 minutes after the challenge. The area of the blueing lesions was measured on the undersurface of the skin. The average value of the two lesions of each rat was regarded as the response of the rat. Test compounds in a dose of 20 mg/kg, dissolved or suspended in a 0.5% aqueous tragacanth solution, were administered orally 1 hour before the antigen challenge. The inhibitory rate was determined by comparing the responses of the rats given each test compound with those of the rats given only a 0.5% aqueous tragacanth solution. Each group of 3 rats was used for each test compound. The mouse antiserum to egg albumin was produced by the method of Levine and Vaz [cf. Int. Arch. Allergy Appl.

The target of another assay is T1, 5-lipoxygenase (Cavia porcellus, UniProt A0A286X958).
T1 construct: The cytosol fraction of peritoneal exudate cells from male Hartley guinea pigs (400-700 g) was used as 5-lipoxygenase; from tissue; host or cells: cytosol fraction of peritoneal exudate cells (leukocytes) of male Hartley guinea pigs
T1 sequence (A0A286X958 1-674): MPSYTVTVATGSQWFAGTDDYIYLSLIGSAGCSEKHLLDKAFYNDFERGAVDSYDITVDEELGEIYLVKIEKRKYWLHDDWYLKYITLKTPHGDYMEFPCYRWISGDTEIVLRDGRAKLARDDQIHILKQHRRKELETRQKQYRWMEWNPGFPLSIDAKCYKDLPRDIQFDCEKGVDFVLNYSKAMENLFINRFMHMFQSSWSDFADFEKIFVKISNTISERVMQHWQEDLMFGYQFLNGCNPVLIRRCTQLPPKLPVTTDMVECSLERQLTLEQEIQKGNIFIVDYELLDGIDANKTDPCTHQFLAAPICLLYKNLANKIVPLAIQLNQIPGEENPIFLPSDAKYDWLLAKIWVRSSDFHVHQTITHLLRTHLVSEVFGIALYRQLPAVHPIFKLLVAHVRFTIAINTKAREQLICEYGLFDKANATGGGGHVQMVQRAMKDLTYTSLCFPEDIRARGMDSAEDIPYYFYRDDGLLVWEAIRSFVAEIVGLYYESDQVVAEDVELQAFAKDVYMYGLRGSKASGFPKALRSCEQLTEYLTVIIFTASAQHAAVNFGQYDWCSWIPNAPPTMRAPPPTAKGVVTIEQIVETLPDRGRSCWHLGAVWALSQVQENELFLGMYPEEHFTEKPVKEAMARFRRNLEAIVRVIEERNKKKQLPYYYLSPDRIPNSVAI
The experiment in a line: Inhibitory effect on 5-lipoxygenase activity in guinea pig leukocytes. The class given is biochemical, guinea pig (male Hartley). The following applies: read-out: 5-Lipoxygenase inhibit. activity, Inhibition. As to the method: (1) Inhibitory effect on 5-lipoxygenase activity in guinea pig leukocytes:
This test was carried out by the method of Miyamoto and Obata (cf. "Perspectives in Prostaglandin Research," ed. by Y. Shiokawa et al., Excepta Medica, Amsterdam-Oxford-Princeton, 1983, p78) with minor modifications.
The cytosol fraction of peritoneal exudate cells from male Hartley guinea pigs (400-700 g) was used as 5-lipoxygenase. The standard reaction mixture contained 50 mM potassium phosphate buffer, 1 mM CaCl2, 1 mM glutathione, 1 mM adenosine triphosphoric acid, 10 μM indomethacin and the enzyme. The mixture was incubated for 5 minutes at 30° C. after addition of [1-^14 C]arachidonic acid (0.02 μCi). The reaction was terminated by addition of 0.6 ml of the cold organic solvents (diethyl ether/methanol/0.2M citric acid=30/4/1). The organic layer (300 μl) was applied onto a precoated silica gel 60F254 glass plate (E. Merck, West Germany). Radioactivity on the plate was monitored by a radiochromatogram scanner (Packard, U.S.A.). 5-Lipoxygenase activity was calculated according to the following equation. [formula]
The effects of the test compounds were expressed in terms of percent inhibition.

As for `Cc1ccc(C=CC(=O)NCCCCN2CCN(C(c3ccccc3)c3ccccc3)CC2)cn1` [Example 2, N-[3-(6-methyl-3-pyridyl)acryloyl]-4-(4-diphenylmethyl-1-piperazinyl)butylamine], in assay [1], the inhibition in vivo at 20 mg/kg worked out at 81.9%. Also, on 5-lipoxygenase (3 × 10^-5 M), the inhibition at 30 µM is 87.2%. Further, the inhibition at 10 µM on 5-lipoxygenase (10^-5 M) worked out at 45.7%.
